For assay [1], the target named is Syk (356-635 amino acids) catalytic domain (Homo sapiens (Human), UniProt P43405). Kind of assay: Inhibition of enzymatic Syk kinase activity (radiometric). The assay is classed as biochemical. Particulars: read-out: IC50 Syk. An excerpt: The objective of this assay was to examine by radiometric method the ability of compounds to inhibit Syk kinase enzyme. Syk is capable of phosphorylating substrates such as VAV, LAT, SLP-76, which in turn activate MAPK, PLCγ signaling pathways. […] This in vitro assay tests the ability of syk to phosphorylate a substrate peptide in the presence of ATP. By using a radio-labeled form of ATP, it is possible to measure the amount of phosphorylation of the substrate. The enzyme transfers a radio-labeled phosphate group from γ32 P labeled ATP to pG4T. Briefly the enzyme was incubated with substrate, radio-labeled & cold ATP and substrate in buffer with or without compounds. At the end of the reaction, the reaction mixture was transferred on to a Multiscreen filter plate and unreacted γ^32P ATP was washed off. The filter plate was dried and the radioactivity was measured on a scintillation counter to estimate the incorporated radioactivity on the substrate. The percent inhibition of activity of the enzyme was calculated by comparing counts in the presence and absence of compounds. […] 2.5 μL of 10% DMSO or compound in 10% DMSO was added to the wells in a 96 well V-bottom plate. Optimized concentration of in-house Syk enzyme (different batches of Syk (356-635) kinase domain) were used at optimized concentrations) ranging from 0.035 ng to 7.5 ng/reaction diluted in assay buffer was added to a total volume of 12.5 μL). Compound and protein were incubated for 30 minutes at room temperature on a plate shaker. Ten μL of a substrate mix containing 100 μM ATP (0.25 μL), γ-P^32-ATP (0.1 μL; 10 μCi/μL), pG4T (0.25 μL; 10 mg/mL) and 1× assay buffer (9.4 μL) was added to all the wells. Samples were incubated at 30° C. for 10 minutes after mixing. The reaction was stopped by the addition of 8N HCl (13 μL) containing 100 mM ATP. Thirty μL of sample was transferred to the center of a 2×2 cm^2 Whatman® P81 chromatography paper. After allowing the sample to dry for one minute, the assay squares were washed 3 times for 5 minutes each in ortho-phosphoric acid (0.5%) and once in acetone. Assay squares were dried for 15 minutes in a 30° C. oven and transferred to 96 well optiplate. Microscint-O® reagent (100 μL, Perkin Elmer) was added to each well, the plate was sealed with Topseal®-A microplates and incubated for 10 minutes at room temperature at very low speed on rocker and the plate was read in the Topcount® NXL instrument. The following calculations were made: Fold induction=radioactivity counts (uncorrected values) in positive control/substrate control.

A further assay deals with JAK2 (Homo sapiens (Human), UniProt O60674). Kind of assay: Inhibition of enzymatic JAK2 kinase activity (TR-FRET). The assay is classed as biochemical. Particulars: read-out: IC50 JAK. The text has this: The objective of this assay was to screen compounds in a Time-resolved fluorescence resonance energy transfer (TR-FRET) Enzymatic assay method for their potential to inhibit JAK2 (Janus kinase) activity.
TR-FRET assays are homogeneous proximity assays where Eu-labeled antiphosphotyrosine antibody binds to the phosphorylated substrates labeled with Ulight fluorescence acceptor. Eu can transfer energy to Ulight accepter in the complex and the interaction of two dye-labeled binding partners is detected by the energy transfer between a donor and an acceptor dye, and the subsequent light emission by the acceptor dye. The intensity of the light emission is proportional to the level of Ulight peptide phosphorylation.
Two μL of 10% DMSO in blank, substrate control and positive control wells and 2 μL of test compound in test wells was added. Thirteen μL of assay buffer in blank and substrate control wells and 13 μL of Enzyme buffer mix in positive and test wells was added. The reaction mixture was incubated for 30 minutes at RT on a plate shaker. Ultra Light-pGT substrate (5 μL) [poly Glu-Tyr (4:1) labeled with U Light TM dye, a tyrosine kinase substrate] and ATP mix was added to all wells. The reaction plate was incubated for 60 minutes at RT on a plate shaker. The reaction was stopped by adding 40 mM EDTA (10 μL) in buffer. Ten μL of antibody was added to all the wells. The plate was read in a Wallac® 1420 Multilabel Counter Victor 3 instrument (Ex: 340 nm Em: 615 & 665 nm) The following calculations were made:
F@ 665 Value-Buffer blank
F@ 615 Value-Buffer blank
Ratio of F@665/F@615-Substrate Blank
% Activity=(Test Sample/Positive control)*100%
Inhibition=(100−% Activity)
Background: TR-FRET usually uses a lanthanide donor and a delayed reading to cut background.

Where a name gives a salt, the structure may show the parent alone.

JAK2, sequence (O60674 808-1132): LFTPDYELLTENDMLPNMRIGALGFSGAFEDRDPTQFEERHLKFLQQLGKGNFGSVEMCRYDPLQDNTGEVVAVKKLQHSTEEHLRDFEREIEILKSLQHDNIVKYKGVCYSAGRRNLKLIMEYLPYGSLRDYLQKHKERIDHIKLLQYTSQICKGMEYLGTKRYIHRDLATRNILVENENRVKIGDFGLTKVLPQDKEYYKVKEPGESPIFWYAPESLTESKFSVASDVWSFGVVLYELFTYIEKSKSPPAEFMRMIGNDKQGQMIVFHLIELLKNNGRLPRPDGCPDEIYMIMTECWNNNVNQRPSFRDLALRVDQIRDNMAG

As usually defined, the IC50 is the concentration that inhibits the measured activity by half. Take `COC(=O)c1ccc(-c2nc(Nc3ccc(CN4CCNCC4)cc3)c3c(=O)[nH]ncc3n2)cc1` [Example 2, Methyl 4-(5-oxo-4-(4-(piperazin-1-ylmethyl)phenylamino)-5,6-dihydropyrimido[4,5-d]pyridazin-2-yl)benzoate hydrochloride]: the IC50 in assay [1] was below 100 nM; on JAK2, above 100 nM.
For the molecule `O=c1[nH]ncc2nc(N3CCOCC3)nc(Nc3ccc(CN4CCNCC4)cc3)c12` [Example 3, 2-morpholino-4-(4-(piperazin-1-ylmethyl)phenylamino)pyrimido[4,5-d]pyridazin-5(6H)-one hydrochloride], the values for the IC50 (in assay [1]; on JAK2) were above 100 nM and below 100 nM, respectively.
On to `O=c1[nH]ncc2nc(-c3ccccc3)nc(Nc3ccc(CN4CCOCC4)cc3)c12` [Example 4, 4-(4-(morpholinomethyl)phenylamino)-2-phenylpyrimido[4,5-d]pyridazin-5(6H)-one], for which the results for the IC50 (in assay [1]; on JAK2) were below 100 nM and below 50 nM, respectively.
Consider `O=C(O)CN1CCN(c2ccc(Nc3nc(-c4ccccc4)nc4cn[nH]c(=O)c34)cc2)CC1` [Example 12, 2-(4-(4-(5-oxo-2-phenyl-5,6-dihydropyrimido[4,5-d]pyridazin-4-ylamino)phenyl)piperazin-1-yl) acetic acid], for which the results for the IC50 (in assay [1]; at JAK2) were below 50 nM and below 10 nM, respectively.
As for `O=c1[nH]ncc2nc(N3CCC4(CC3)CC4)nc(Nc3ccc(N4CCOCC4)cc3)c12` [Example 18, 4-(4-morpholinophenylamino)-2-(6-azaspiro[2.5]octan-6-yl)pyrimido[4,5-d]pyridazin-5(6H)-one], the IC50 in assay [1] is above 100 nM; at JAK2, below 50 nM.
The matching figures for `O=C(O)C1CC12CCN(c1ccc(Nc3nc(-c4ccccc4)nc4cn[nH]c(=O)c34)cc1)CC2` (stereo not drawn) [Example 22, sodium 6-(4-(5-oxo-2-phenyl-5,6-dihydropyrimido[4,5-d]pyridazin-4-ylamino)phenyl)-6-azaspiro[2.5]octane-1-carboxylate]: below 100 nM and below 50 nM.
With `O=c1[nH]ncc2nc(-c3ccccc3)nc(Nc3ccc(CN4CCC5(CC4)COC5)cc3)c12` [Example 23, 4-(4-(2-oxa-7-azaspiro[3.5]nonan-7-ylmethyl)phenylamino)-2-phenylpyrimido[4,5-d]pyridazin-5(6H)-one], the IC50 is below 50 nM in assay [1] and below 100 nM at JAK2.
As for `O=C(O)c1ccc(-c2nc(Nc3ccc(CN4CCNCC4)cc3)c3c(=O)[nH]ncc3n2)cc1` [Example 27, 4-(5-oxo-4-(4-(piperazin-1-ylmethyl)phenylamino)-5,6-dihydropyrimido[4,5-d]pyridazin-2-yl)benzoic acid hydrochloride], the IC50 (in assay [1]; at JAK2) was above 100 nM each time.
`CCN1CCN(c2ccc(Nc3nc(-c4ccc(OC(F)(F)F)cc4)nc4cn[nH]c(=O)c34)cc2)CC1` [Example 28, 4-(4-(4-ethylpiperazin-1-yl)phenylamino)-2-(4-(trifluoromethoxy)phenyl) pyrimido[4,5-d]pyridazin-5(6H)-one]: the IC50 (in assay [1]; on JAK2) was above 100 nM in each case.
Take `COc1cccc(-c2nc(Nc3ccc(CN4CCNCC4)cc3)c3c(=O)[nH]ncc3n2)c1` [Example 31, 2-(3-methoxyphenyl)-4-(4-(piperazin-1-ylmethyl)phenylamino)pyrimido[4,5-d]pyridazin-5(6H)-one hydrochloride]: the results for the IC50 (in assay [1]; at JAK2) were below 50 nM and above 100 nM, respectively.
The matching figures for `O=c1[nH]ncc2nc(N3CCNCC3)nc(Nc3ccc(CN4CCNCC4)cc3)c12` [Example 32, 2-(piperazin-1-yl)-4-(4-(piperazin-1-ylmethyl)phenylamino)pyrimido[4,5-d]pyridazin-5(6H)-one dihydrochloride]: below 100 nM and above 100 nM.
In the case of `CC(C)(Oc1ccc(Nc2nc(N3CCC(CC#N)CC3)nc3cn[nH]c(=O)c23)cc1)C(=O)O` [Example 317, 2-(4-((2-(4-(cyanomethyl)piperidin-1-yl)-5-oxo-5,6-dihydropyrimido[4,5-d]pyridazin-4-yl)amino)phenoxy)-2-methylpropanoic acid], in assay [1], the IC50 was above 100 nM.
On the same count and under the same terms, to `COc1ccc(Nc2nc(N3CCCCCC3)nc3cn[nH]c(=O)c23)cc1OC` [Example 318, 2-(azepan-1-yl)-4-((3,4-dimethoxyphenyl)amino)pyrimido[4,5-d]pyridazin-5(6H)-one] belongs above 100 nM; to `COc1ccc(Nc2nc(N3CCC(CC#N)CC3)nc3cn[nH]c(=O)c23)cc1OC` [Example 319, 2-(1-(4-((3,4-dimethoxyphenyl)amino)-5-oxo-5,6-dihydropyrimido[4,5-d]pyridazin-2-yl)piperidin-4-yl)acetonitrile], above 100 nM; to `COc1cccc(Nc2nc(N3CCCCCC3)nc3cn[nH]c(=O)c23)c1` [Example 320, 2-(azepan-1-yl)-4-((3-methoxyphenyl)amino)pyrimido[4,5-d]pyridazin-5(6H)-one], above 100 nM.
Consider `COc1cccc(Nc2nc(N3CCC(CC#N)CC3)nc3cn[nH]c(=O)c23)c1` [Example 321, 2-(1-(4-((3-methoxyphenyl)amino)-5-oxo-5,6-dihydropyrimido[4,5-d]pyridazin-2-yl)piperidin-4-yl)acetonitrile], for which the half-maximal inhibitory concentration (IC50) in assay [1] is above 100 nM.
For `COc1cc(Nc2nc(N3CCC(CC#N)CC3)nc3cn[nH]c(=O)c23)cc(OC)c1OC` [Example 326, 2-(1-(5-oxo-4-((3,4,5-trimethoxyphenyl)amino)-5,6-dihydropyrimido[4,5-d]pyridazin-2-yl)piperidin-4-yl) acetonitrile], in assay [1], the IC50 was above 100 nM.
`O=c1[nH]ncc2nc(N3CCCCCC3)nc(Nc3ccc4c(c3)OCO4)c12` [Example 327, 2-(azepan-1-yl)-4-(benzo[d][1,3]dioxol-5-ylamino)pyrimido[4,5-d]pyridazin-5(6H)-one]: the IC50 in assay [1] was above 100 nM.
Same read-out and setting: to `N#CCC1CCN(c2nc(Nc3ccc4c(c3)OCO4)c3c(=O)[nH]ncc3n2)CC1` [Example 328, 2-(1-(4-(benzo[d][1,3]dioxol-5-ylamino)-5-oxo-5,6-dihydropyrimido[4,5-d]pyridazin-2-yl)piperidin-4-yl) acetonitrile] belongs above 100 nM; to `N#CCC1CCN(c2nc(Nc3ccc(N4CCC(O)CC4)cc3)c3c(=O)n(COP(=O)(O)O)ncc3n2)CC1` [Example 330, sodium (2-(4-(cyanomethyl)piperidin-1-yl)-4-((4-(4-hydroxypiperidin-1-yl)phenyl)amino)-5-oxopyrimido[4,5-d]pyridazin-6(5H)-yl)methyl phosphate], above 100 nM.
Still for that read-out and setting: to `N#CCC1CCN(c2nc(Nc3ccc(CO)cc3)c3c(=O)[nH]ncc3n2)CC1` [Example 332, 2-(1-(4-((4-(hydroxymethyl)phenyl)amino)-5-oxo-5,6-dihydropyrimido[4,5-d]pyridazin-2-yl)piperidin-4-yl) acetonitrile] belongs below 100 nM; to `CS(=O)(=O)c1ccc(Nc2nc(N3CCC(CC#N)CC3)nc3cn[nH]c(=O)c23)cc1` [Example 333, 2-(1-(4-((4-(methylsulfonyl)phenyl)amino)-5-oxo-5,6-dihydropyrimido[4,5-d]pyridazin-2-yl)piperidin-4-yl) acetonitrile], above 100 nM.

The record behind these values is patent US10183944B2 (Asana Biosciences, LLC, priority 2011, dated 2019).
